Reference: patent US20260217701A1, “SELECTIVE BET INHIBITORS AND USES THEREOF” (Tay Therapeutics Limited, priority 2022, published 2026)
Entries after “also recorded” stand apart in the source; their conditions may differ. Read-outs that look alike come from different tables or passages of the source. Marks after values point to notes of the source that are not given here. Values belong to the molecule of their own block, whether it stands above or below them.

Columns and labels:
[1] = system: collagen-induced arthritis; experiment: CIA model: histopathologic analysis of hind limbs; format: in vivo, Lewis rats; conditions: for Erosion/Ulcer, cartilaginous, Marked (number of animals) / Erosion/Ulcer, cartilaginous, Mild (number of animals) / Erosion/Ulcer, cartilaginous, Minimal (number of animals) / Erosion/Ulcer, cartilaginous, Moderate (number of animals) / Granulation tissue, Marked (number of animals) / Granulation tissue, Mild (number of animals) / Granulation tissue, Minimal (number of animals) / Granulation tissue, Moderate (number of animals) / Increased bone, periosteum, Marked (number of animals) / Increased bone, periosteum, Mild (number of animals) / Increased bone, periosteum, Minimal (number of animals) / Increased bone, periosteum, Moderate (number of animals) / Increased eroded surface, bone, Marked (number of animals) / Increased eroded surface, bone, Mild (number of animals) / Increased eroded surface, bone, Minimal (number of animals) / Increased eroded surface, bone, Moderate (number of animals) / Mixed cell inflammation, Marked (number of animals) / Mixed cell inflammation, Mild (number of animals) / Mixed cell inflammation, Minimal (number of animals) / Mixed cell inflammation, Moderate (number of animals) / No Visible Lesions (number of animals): hind limbs, CIA induced, 8 animals examined
Source text: Mean histopathologic scores for tissue samples from animals in Groups 1-6 are depicted in FIG. 22A, and day 21 histology scores for all animals are illustrated in FIG. 22B.

BRD4 BD2 = biological target: T1, BRD4 BD2 (Homo sapiens, UniProt O60885); experiment: NanoBRET bromodomain assay, NanoLuc-BRD4-BD2 in HEK293 cells; format: binding; conditions: for Selectivity (BD1/BD2) / BD2: nanoBRET assay, given as symbol only; for Selectivity (BD1/BD2): higher number denotes higher selectivity; for BD2: lower number denotes higher potency
T1 construct: HEK293 cells were transfected using NanoLuc-BRD4-BD1 or NanoLuc-BRD4-BD2 fusion vectors
Description: Plates were then incubated at 37° C.+5% CO2 incubator for 2 hours.
Fold Selectivity Calculated (IC50 BD1/IC50 BD2).

anti-collagen IgG1 = experiment: CIA model: rat anti-collagen IgG1 levels; format: in vivo, Lewis rats; design: Average rat anti-collagen IgG1 levels, Mean: unit not given here
[2] = Group 5 (CIA + Compound A 1 mg/kg), 1 mg/kg
[3] = Group 6 (CIA + Compound A 3 mg/kg)
[4] = Group 7 (CIA + Compound A 10 mg/kg), two out of eight samples

SMILES: Cn1cc(-c2ccccc2)c(-c2cn(C)c(=O)c3[nH]c(-c4cnn(C(F)(F)F)c4)cc23)cc1=O [Compound A, 6-methyl-4-(1-methyl-2-oxo-5-phenyl-1,2-dihydropyridin-4-yl)-2-(1-(trifluoromethyl)-1H-pyrazol-4-yl)-1,6-dihydro-7H-pyrrolo[2,3-c]pyridin-7-one]
Samples with no pathologic observations ([1]; 1 mg/kg, Group 5): One out of eight
Samples with no pathologic observations ([1]; 3 mg/kg, Group 6): Two out of eight
Samples with no pathologic observations ([1]; 10 mg/kg, Group 7): Six out of eight
Animals exhibiting normal limb/joint pathology ([1]; 10 mg/kg, day 21): 6/8
Erosion/ulcer in articular cartilage, grade [1, 2]: mild and mild to moderate
Granulation tissue (pannus), grade [1, 2]: mild and mild to moderate
Increased eroded surface of bone (bone resorption), grade [1, 2]: mild and mild to moderate
Increased periosteal bone (periosteal bone formation), grade [1, 2]: mild and mild to moderate
Mixed cell inflammation, grade [1, 2]: moderate to marked
Erosion/ulcer in articular cartilage, grade [1, 3]: mild
Increased eroded surface of bone (bone resorption), grade [1, 3]: mild
Increased periosteal bone (periosteal bone formation), grade [1, 3]: mild
Mixed cell inflammation, grade [1, 3]: moderate
Granulation tissue (pannus), grade ([1]; Group 6 (CIA + Compound A 3 mg/kg), 3 mg/kg): mild and mild to moderate
Histopathological observations, representative sample/image ([1]; Group 7 (CIA + Compound A 10 mg/kg), FIG. 23G, 23I, 10 mg/kg): no histopathological observations noted; also recorded: normal joint pathology
Erosion in the articular cartilage, grade [1, 4]: mild
Granulation tissue (pannus), grade [1, 4]: mild
Increased periosteal bone (periosteal bone formation), grade [1, 4]: minimal
Mixed cell inflammation, grade [1, 4]: mild to moderate
Pathologic observations relative to CIA-induced group (Group 2) ([1]; Groups 5-7 (Compound A 1, 3, 10 mg/kg)): all decreased in severity, extent, and distribution
Severity of arthritic histopathology versus vehicle- and GSK620-treated animals ([1]; all tested doses (1, 3, 10 mg/kg)): dose-dependent reduction in the severity of arthritic histopathology; also recorded: significant dose-dependent decrease in the incidence and severity of collagen-induced arthritis
Erosion/Ulcer, cartilaginous, Marked (number of animals) ([1]; 1 mg/kg): 0
Erosion/Ulcer, cartilaginous, Mild (number of animals) ([1]; 1 mg/kg): 6
Erosion/Ulcer, cartilaginous, Minimal (number of animals) ([1]; 1 mg/kg): 0
Erosion/Ulcer, cartilaginous, Moderate (number of animals) ([1]; 1 mg/kg): 1
Granulation tissue, Marked (number of animals) ([1]; 1 mg/kg): 0
Granulation tissue, Mild (number of animals) ([1]; 1 mg/kg): 3
Granulation tissue, Minimal (number of animals) ([1]; 1 mg/kg): 0
Granulation tissue, Moderate (number of animals) ([1]; 1 mg/kg): 3
Increased bone, periosteum, Marked (number of animals) ([1]; 1 mg/kg): 0
Increased bone, periosteum, Mild (number of animals) ([1]; 1 mg/kg): 4
Increased bone, periosteum, Minimal (number of animals) ([1]; 1 mg/kg): 1
Increased bone, periosteum, Moderate (number of animals) ([1]; 1 mg/kg): 0
Increased eroded surface, bone, Marked (number of animals) ([1]; 1 mg/kg): 0
Increased eroded surface, bone, Mild (number of animals) ([1]; 1 mg/kg): 3
Increased eroded surface, bone, Minimal (number of animals) ([1]; 1 mg/kg): 0
Increased eroded surface, bone, Moderate (number of animals) ([1]; 1 mg/kg): 2
Mixed cell inflammation, Marked (number of animals) ([1]; 1 mg/kg): 0
Mixed cell inflammation, Mild (number of animals) ([1]; 1 mg/kg): 2
Mixed cell inflammation, Minimal (number of animals) ([1]; 1 mg/kg): 1
Mixed cell inflammation, Moderate (number of animals) ([1]; 1 mg/kg): 4
No Visible Lesions (number of animals) ([1]; 1 mg/kg): 1
Erosion/Ulcer, cartilaginous, Marked (number of animals) ([1]; 3 mg/kg): 0
Erosion/Ulcer, cartilaginous, Mild (number of animals) ([1]; 3 mg/kg): 3
Erosion/Ulcer, cartilaginous, Minimal (number of animals) ([1]; 3 mg/kg): 3
Erosion/Ulcer, cartilaginous, Moderate (number of animals) ([1]; 3 mg/kg): 0
Granulation tissue, Marked (number of animals) ([1]; 3 mg/kg): 0
Granulation tissue, Mild (number of animals) ([1]; 3 mg/kg): 4
Granulation tissue, Minimal (number of animals) ([1]; 3 mg/kg): 0
Granulation tissue, Moderate (number of animals) ([1]; 3 mg/kg): 2
Increased bone, periosteum, Marked (number of animals) ([1]; 3 mg/kg): 0
Increased bone, periosteum, Mild (number of animals) ([1]; 3 mg/kg): 4
Increased bone, periosteum, Minimal (number of animals) ([1]; 3 mg/kg): 2
Increased bone, periosteum, Moderate (number of animals) ([1]; 3 mg/kg): 0
Increased eroded surface, bone, Marked (number of animals) ([1]; 3 mg/kg): 0
Increased eroded surface, bone, Mild (number of animals) ([1]; 3 mg/kg): 3
Increased eroded surface, bone, Minimal (number of animals) ([1]; 3 mg/kg): 2
Increased eroded surface, bone, Moderate (number of animals) ([1]; 3 mg/kg): 0
Mixed cell inflammation, Marked (number of animals) ([1]; 3 mg/kg): 0
Mixed cell inflammation, Mild (number of animals) ([1]; 3 mg/kg): 2
Mixed cell inflammation, Minimal (number of animals) ([1]; 3 mg/kg): 0
Mixed cell inflammation, Moderate (number of animals) ([1]; 3 mg/kg): 4
No Visible Lesions (number of animals) ([1]; 3 mg/kg): 2
Erosion/Ulcer, cartilaginous, Marked (number of animals) ([1]; 10 mg/kg): 0
Erosion/Ulcer, cartilaginous, Mild (number of animals) ([1]; 10 mg/kg): 1
Erosion/Ulcer, cartilaginous, Minimal (number of animals) ([1]; 10 mg/kg): 1
Erosion/Ulcer, cartilaginous, Moderate (number of animals) ([1]; 10 mg/kg): 0
Granulation tissue, Marked (number of animals) ([1]; 10 mg/kg): 0
Granulation tissue, Mild (number of animals) ([1]; 10 mg/kg): 1
Granulation tissue, Minimal (number of animals) ([1]; 10 mg/kg): 0
Granulation tissue, Moderate (number of animals) ([1]; 10 mg/kg): 0
Increased bone, periosteum, Marked (number of animals) ([1]; 10 mg/kg): 0
Increased bone, periosteum, Mild (number of animals) ([1]; 10 mg/kg): 0
Increased bone, periosteum, Minimal (number of animals) ([1]; 10 mg/kg): 0
Increased bone, periosteum, Moderate (number of animals) ([1]; 10 mg/kg): 0
Increased eroded surface, bone, Marked (number of animals) ([1]; 10 mg/kg): 0
Increased eroded surface, bone, Mild (number of animals) ([1]; 10 mg/kg): 0
Increased eroded surface, bone, Minimal (number of animals) ([1]; 10 mg/kg): 1
Increased eroded surface, bone, Moderate (number of animals) ([1]; 10 mg/kg): 0
Mixed cell inflammation, Marked (number of animals) ([1]; 10 mg/kg): 0
Mixed cell inflammation, Mild (number of animals) ([1]; 10 mg/kg): 1
Mixed cell inflammation, Minimal (number of animals) ([1]; 10 mg/kg): 0
Mixed cell inflammation, Moderate (number of animals) ([1]; 10 mg/kg): 1
No Visible Lesions (number of animals) ([1]; 10 mg/kg): 6
selectivity for BDII relative to GSK620 (BRD4 BD2): greater than about two orders of magnitude
Selectivity (BD1/BD2) (BRD4 BD2): >>>>
BD2 (BRD4 BD2): <
EC50 (BRD4 BD2; previously determined, reference level for rat plasma concentrations (FIG. 4D), read-out: free EC50 BD2 BRD4 (converted)): 18.9 nM
EC50 (BRD4 BD2; reference level for dog plasma concentrations (Dog PK study #4), read-out: free EC50 BD2 BRD4 (converted)): 14.5 nM
EC50 (BRD4 BD2; stated with the CIA study PK, domain not stated, read-out: free EC50 (converted)): 17.2 nM
Average rat anti-collagen IgG1 levels, Mean (anti-collagen IgG1; Group 5 (CIA + Compound A 1 mg/kg)): 1180.61**
Average rat anti-collagen IgG1 levels, Mean (anti-collagen IgG1; [3]): 569.60**
Average rat anti-collagen IgG1 levels, Mean (anti-collagen IgG1; Group 7 (CIA + Compound A 10 mg/kg)): 220.15**
Inhibition of IgG1 (anti-collagen IgG1; all three doses): near complete inhibition of IgG1

Selectivity (BD1/BD2) (BRD4 BD2): >>>>
BD2 (BRD4 BD2): ≤
SMILES: COCCn1cc(-c2ccccc2)c(-c2cn(C)c(=O)c3[nH]c(-c4cnn(C(F)(F)F)c4)cc23)cc1=O [Compound B, 4-(1-(2-methoxyethyl)-2-oxo-5-phenyl-1,2-dihydropyridin-4-yl)-6-methyl-2-(1-(trifluoromethyl)-1H-pyrazol-4-yl)-1,6-dihydro-7H-pyrrolo[2,3-c]pyridin-7-one]
